Assay results: US20100215632A1, “BIOMARKERS OF SIRTUIN ACTIVITY AND METHODS OF USE THEREOF” (Sirtris Pharmaceuticals, Inc., priority 2007, published 2010)

Key:
[1] = test system: FGF21; assay: FGF21 expression in liver of diet-induced obesity mice (microarray); format: in vivo, mouse; settings: 3 day liver, oral once per day; resveratrol 1000 mg/kg, Compound 1 100 mg/kg
Experimental: (§1) As with Example 2, the diet-induced obesity (D10) model was used. 51 C57BL/6 mice are started on a 60% kcal high fat diet. Mice are weighed once a week for approximately 7 weeks on the high fat diet until the average body weight of the D10 mice is 40 grams. The study is divided into 3 groups of […] mice per group with mean average body weight/cage. Animals are dosed orally once per day as follows: Resveratrol at 1000 mg/kg in 2% HPMC/0.2% DOSS, Compound 1 at 100 mg/kg in 2% HPMC/0.2% DOSS and vehicle control animals 2% HPMC/0.2% DOSS. Concentration of compound is adjusted to proper dose according to the mean weight for each group weekly. Mice are typically dosed in the a.m. and are only dosed in the p.m. on days following a 16 hour fast. On day 3 of dosing, liver tissue is collected from the mice 1 hour post dose.
The liver is isolated as in Example 2. Total RNA from the liver sample is extracted with standard techniques (e.g. PureLink Micro-to-Midi Total RNA Purification System, Invitrogen cat. #12183-018).
Expression of multiple genes was determine by microarray as in Example 4.

[2] = test system: liver; assay: Overall pattern of change in gene expression in 3 day liver of diet-induced obesity mice (gene chip); format: in vivo, mouse; settings: 1000 mg/kg oral once per day
Text: A mouse model of diet induced obesity was used to identify sirtuin biomarkers in mice following dosing with two chemically unrelated sirtuin activators. Obesity and type II diabetes are being intensively studied in animal models, particularly the mouse. One such model is commonly referred to as the diet-induced obesity (DIO) model. Typically, C57BL/6 males are fed a high fat diet for 8 to 12 weeks and, as a result, become obese, mildly to moderately hyperglycemic, and glucose intolerant. These mice are then used to study the genetic and physiological mechanisms of obesity and type II diabetes.
as §1, with “51” for “As with Example 2, the diet-induced obesity (D10) model was used. 51”, “DIO” for “D10”, “Each group is split up into 3 sub-groups for a 3, 16 and 42” for “On”, “collection time point.” for “3 of dosing, liver tissue is collected from the mice 1 hour post dose.”
Once dosing starts data collections are as follow. Day 3: collect tissues, blood and glucose from 6 mice from each group 1 hour post dose. Also take fed glucose from remaining groups. Day 13: Intraperitoneal glucose tolerance test (IPGTT). Day 16: collect tissues, blood and glucose from 6 mice from each group 1 hour post dose. Also take fed glucose from remaining groups. Day 28: Fasted glucose. […]
Total RNA isolated from either Example 2 above (mouse tissues following in vivo treatment with either Compound 1 or resveratrol) or Example 3 above (human WBC following ex vivo treatment with either Compound 2 or resveratrol) was analyzed using an Affymetrix GeneChip specific to either the mouse or human genome. […]

| SMILES | FGF21 mRNA levels versus control mice [1] | activity of PGC1a and PPAR family members [2] | activity of hepatic transcription factors involved in glucose homeostasis and the stress response pathway [2] | inflammatory signaling (pattern of gene expression) [2] |
| --- | --- | --- | --- | --- |
| O=C(Nc1ccccc1-c1cn2c(CN3CCNCC3)csc2n1)c1cnc2ccccc2n1 [Compound 1] | markedly higher | – | – | – |
| Oc1ccc(C=Cc2cc(O)cc(O)c2)cc1 [resveratrol, 3,5,4′-trihydroxystilbene] | markedly higher | increased activity of PGC1a and PPAR family members | increased activity of hepatic transcription factors | decreased inflammatory signaling |
